Patent US8158606B2, “β-L-2′-deoxynucleosides for the treatment of resistant HBV strains and combination therapies” (priority 2002, dated 2012)

Experiments:
[1] = Bioavailability of the prodrugs of L-dC; details: cynomolgus monkey, plasma, po, 10 mg/kg
in vivo [2] = details: rhesus monkey, po, 10 mg/kg
Description: (§12) The drug was detected and concentration determined using a reverse-phase HPLC technique. The blood and urine drug level data were analyzed by a non-modeling mathematical method and AUCs derived by the linear trapezoidal rule.

[3] = Single dose bioavailability of L-dC in the cynomologus monkey; assay type: in vivo, cynomolgus monkey; details: for AUC(0-t) / half-life: n=3, mean; for AUC(0-t): read-out: AUClast of L-dC; for half-life: in vivo
Description: The pharmacokinetics of L-dC following IV and oral administration of L-dC to cynomolgus monkeys was determined.

in vivo [4] = details: Sprague-Dawley, rat, 10 mg/kg
Description: (§13) The drug was detected and the concentration determined in plasma and urine using a reverse-phase HPLC technique. The data were analyzed by a non-modeling mathematical method and the AUCs derived by the linear trapezoidal rule.

[5] = Single-dose bioavailability of L-dC in the rhesus monkey
Description: as §12

[6] = system: L515M/M552I mutant HBV, cell line MI4; test: Antiviral testing in stable HepG2 cell lines, EPA of intracellular nucleocapsids; assay type: cell-based, hepatitis B virus; details: Hepatitis B virus, HepG2, L515M/M552I double mutant
Description: (§1) Recombinant DNA constructs corresponding to these lamivudine-resistant mutants were created by site directed mutagenesis. The test system comprised stable cell lines harboring each of the transfected mutant genomes, as well as a wild-type control HBV genome. The antiviral activity of LdT (telbivudine) and LdC, together with the control drugs lamivudine and PMEA, was determined against the mutant and wild-type HBV genomes in the respective test cell lines.
(§2) Endogenous Polymerase Assay (EPA) of cell lysate: Cells were grown in 12-well collagen plates to 100% confluency for 3-4 days and cytosolic lysates were prepared in 1 ml of 50 mM Tris-HCl pH 7.4, 150 mM NaCl, 5 mM MgCl2, 0.2% NP-40. EPAs were essentially performed as described (Seifer et al., 1998). […] The immobilized capsids were then washed, endogenous polymerase reactions were initiated in 50 ul reaction volume containing 50 mM Tris-HCl pH7.4, 75 mM NH4Cl, 1 mM EDTA, 20 mM MgCl2, 0.1 mM β-ME, 0.5% NP-40, 100 μM cold dGTP, TTP, dCTP, and 50 nM ^33P-dATP (Perkin Elmer Life Sciences Cat# NEG 612H), and incubated overnight at 37° C. Following digestion with 1 mg/ml of Proteinase K (Roche, Cat#1373196) for 1 h at 37° C., ^33P-labeled HBV DNA was liberated via phenol/chloroform extraction The nucleic acids were finally precipitated with equal volumes 5M NH4-acetate and 2.5 volumes 100% EtOH and separated on a 1% native agarose gel in Tris-borate buffer. Gels were either fixed with 7% TCA, then dried, or blotted onto positively charged nylon membrane (Pall Biodyne Plus Cat#60406) overnight at room temperature via capillary transfer in 0.4 N NaOH. Dried gels/membranes were exposed to a phosphoimager screen (Molecular Dynamics) overnight at room temperature, then scanned (Storm 860, Molecular Dynamics) and quantitated with ImageQuant (Molecular Dynamics) software.
(§3) 12-well Biocoat collagen I plates (Becton Dickinson Cat#35-4500) are seeded with cells at a density of 0.5-1×10^6 cells per well in 2 ml DMEM containing 5% FBS, 2 mM L-glutamine, 100 I.U. penicillin/100 μg/mL streptomycin, and 0.5 mg/mL G-418.
(§4) Drug dilutions are prepared freshly in 100% DMSO as 200× stocks. For each experiment, 4 aliquots of each drug dilution series are stored at −20° C. until used. Once cells reach confluency, drug treatment is initiated by adding 10 μL of drug dilution into 2 ml of fresh DMEM+5% FBS. […] The no-drug control well receives only 10 μl of DMSO. Cells are treated every other day with 2 mL of fresh drug/medium for a total of 8 days. Cell lysates are then collected on day 10 as described below:
(§5) Aspirate media and rinse cell monolayer carefully once with 1 mL of PBS.
(§6) Add 1 ml of lysis buffer (50 mM Tris-HCl pH 7.5/150 mM NaCl/5 mM MgCl2/0.2% NP-40). Store on ice for 30 min to 4 h.
(§7) Harvest lysed cells. Transfer to 1.5 ml microfuge tubes.
(§8) Clarify lysate by spinning for 5 min at RT and 14,000 rpm.
(§9) Transfer clarified lysate to fresh tubes. Snap-freeze on dry-ice and store at −80° C. until ready to continue with endogenous polymerase assays essentially as described above.
(§10) EC50's were generated from the phosphorimager data by curve fitting using Xlfit software.

[7] = system: L515M/M552V mutant HBV, cell line MV5/B3; test: as above; assay type: cell-based, hepatitis B virus; details: Hepatitis B virus, HepG2, L515M/M552V, cell line MV5/B3; mean ± SD of three to four experiments; read-out: EC50
Description: as §1, §2, §3, §4, §5, §6, §7, §8, §9, §10

[8] = system: M552V mutant HBV, cell line V1/C9; test: as above; assay type: cell-based, hepatitis B virus; details: M552V single mutant
Description: as §1, §2, §3, §4, §5, §6, §7, §8, §9, §10

[9] = system: M552I mutant HBV, cell line I2; test: as above; assay type: cell-based, hepatitis B virus; details: Hepatitis B virus, HepG2, M552I single mutant
Description: as §1, §2, §3, §4, §5, §6, §7, §8, §9, §10

[10] = system: Human DNA polymerases and mitochondrial function; test: Effect on human DNA polymerases and mitochondrial function in vitro
Text: (§11) Human DNA polymerases and mitochondrial function were not affected by L-dC in vitro. L-dC was non-cytotoxic to human peripheral blood mononuclear cells (PBMCs), bone marrow progenitor cells and numerous cell lines of human and other non-human mammalian origin.

[11] = Single-dose bioavailability of L-dC in the rat; details: Sprague-Dawley, plasma, 10 mg/kg
Description: as §13

[12] = system: human peripheral blood mononuclear cells (PBMCs), bone marrow progenitor cells and numerous cell lines; test: Cytotoxicity of L-dC; assay type: cell-based, human and other non-human mammalian
Text: as §11

human plasma proteins = assay type: in vitro ADME; details: ex vivo, ultrafiltration
[13] = cynomolgus monkey, blood, L-dC 10 mg/kg single IV dose
[14] = cynomolgus monkey, blood, L-dC 10 mg/kg single oral dose
[15] = rhesus monkey, blood, po, 10 mg/kg

## Nc1ccn([C@@H]2CC(O)[C@H](CO)O2)c(=O)n1 (stereo partly drawn) [L-dC, 2′-Deoxy-β-L-cytidine]
[1]
  bioavailability: 16.4 ± 5%
In vivo [2]
  half-life: 200 min
[3]; L-dC 10 mg/kg IV
  L-dC as share of the dose recovered in the urine: 94%
  administered dose recovered in urine within 2 hours: 71%
  renal clearance as share of total L-dC clearance: 87%
[3]; L-dC 10 mg/kg oral
  L-dC as share of drug excreted in the urine: ~69%
  administered oral dose recovered in urine after 72 hours: 15.5%
  administered oral dose recovered in urine within 12 hours: Approximately 8.5%
[3]; cynomolgus monkey, blood and urine, L-dC 10 mg/kg single IV dose, mean, read-out: renal clearance (CLR) (converted)
  CL renal: 7.67 mL/min/kg
[3]; cynomolgus monkey, blood, L-dC 10 mg/kg oral vs IV, mean, read-out: oral bioavailability (F)
  bioavailability: 16.4%
[3]; [13]
  Tmax: 0 h
  AUC(0-t): 81.1 µM·h
[3]; cynomolgus monkey, blood, L-dC 10 mg/kg single IV dose, mean, at 15 minutes post-dose
  Cmax: 95.7 µM
[3]; cynomolgus monkey, blood, L-dC 10 mg/kg single IV dose, mean, read-out: apparent volume of distribution (Vd)
  Vd: 1.22 L/kg
[3]; cynomolgus monkey, blood, L-dC 10 mg/kg single IV dose, mean, read-out: total clearance (CL) (converted)
  clearance: 8.83 mL/min/kg
[3]; [14]
  Cmax: 3.38 µM
  AUC(0-t): 13.7 µM·h
[3]; cynomolgus monkey, blood, L-dC 10 mg/kg single oral dose, mean
  Tmax: 2.33 h
[3]; cynomolgus monkey, L-dC 10 mg/kg single IV dose, read-out: t1/2 of L-dC (converted)
  half-life: 95.4 min
[3]; cynomolgus monkey, L-dC 10 mg/kg single oral dose, read-out: terminal t1/2 of L-dC (converted)
  half-life: 177 min
In vivo [4]; po
  half-life: 151 min
In vivo [4]; female, iv
  half-life: 72.6 min
[5]; L-dC 10 mg/kg oral
  L-dC as share of drug excreted in the urine: ~77%
  administered oral dose recovered in urine after 48 hours: 15%
  administered oral dose recovered in urine within 8 hours: Approximately 8.5%
[5]; rhesus monkey, blood and urine, po, 10 mg/kg
  CL renal: 4.55 mL/min/kg
[5]; [15]
  AUC: 12.2 µM·h
  Cmax: 3.23 µM
  Tmax: 49.8 min
  bioavailability: ~16%
[6]
  EC50: > 1 mM
[7]
  EC50: ~780 µM
[8]
  activity against the mutant, in words: retained almost complete activity
[9]
  EC50: > 1 mM
[10]
  effect on human DNA polymerases and mitochondrial function: not affected
[11]; oral
  bioavailability: 15.4%
[11]; po
  AUC(0-t): 4.77 µM·h
  Cmax: 1.5 µM
  Tmax: 1 h
[11]; female, iv
  AUC(0-t): 30.1 µM·h
  Cmax: 91.1 µM
  Tmax: 0 h
  Vd: 2.53 L/kg
  clearance: 24 mL/min/kg
[12]
  cytotoxicity in words: non-cytotoxic
Human plasma proteins
  binding to human plasma proteins: 19.7%
